In PubChem BioAssay AID256 (DTP/NCI, 2004):
Values joined by “and” are separate entries in the source; they are usually repeats but may differ in a detail not shown here. Equal values may be shown once. Toxic doses and inconclusive results are not listed.

Test system: CD2F1 mice, L1210 leukemia ip, survival T/C
Assay: NCI In Vivo Anticancer Drug Screen. Data for tumor model L1210 Leukemia (intraperitoneal) in CD2F1 (CDF1) mice
Conditions: higher = longer survival
How it was run: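 Antitumor effect is scored in animals hosting a serially transplanted tumor. Values compare compound-dosed animals against vehicle-only controls as a simple quotient.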

[1] = endpoint: mean survival time, dose: 12.5 mg/kg/injection, schedule: Q01DX009 (ip), vehicle: saline
[2] = endpoint: mean survival time, dose: 25.0 mg/kg/injection, schedule: Q01DX009 (ip), vehicle: saline
[3] = endpoint: mean survival time, dose: 100.0 mg/kg/injection, schedule: Q04DX003 (ip), vehicle: saline
[4] = endpoint: mean survival time, dose: 200.0 mg/kg/injection, schedule: Q04DX003 (ip), vehicle: saline
[5] = endpoint: mean survival time, dose: 50.0 mg/kg/injection, schedule: Q01DX009 (ip), vehicle: saline
[6] = endpoint: mean survival time, dose: 100.0 mg/kg/injection, schedule: Q04DX002 (ip), vehicle: saline with Tween-80
[7] = endpoint: mean survival time, dose: 200.0 mg/kg/injection, schedule: Q04DX002 (ip), vehicle: saline with Tween-80
[8] = endpoint: mean survival time, dose: 400.0 mg/kg/injection, schedule: Q04DX002 (ip), vehicle: saline with Tween-80

O=C1c2cccc3cc([N+](=O)[O-])cc(c23)C(=O)N1CCN1CCCC1
T/C (endpoint: mean survival time, dose: 1.5 mg/kg/injection, schedule: Q01DX009 (ip), vehicle: saline with Tween-80): 107 % of control
T/C (endpoint: mean survival time, dose: 1.5 mg/kg/injection, schedule: Q01DX009 (ip), vehicle: saline): 100 % of control
T/C (endpoint: mean survival time, dose: 3.0 mg/kg/injection, schedule: Q01DX009 (ip), vehicle: saline with Tween-80): 113 % of control
T/C (endpoint: mean survival time, dose: 3.0 mg/kg/injection, schedule: Q01DX009 (ip), vehicle: saline): 100 % of control
T/C (endpoint: mean survival time, dose: 6.0 mg/kg/injection, schedule: Q01DX009 (ip), vehicle: saline): 113 % of control
T/C (endpoint: mean survival time, dose: 12.0 mg/kg/injection, schedule: Q01DX009 (ip), vehicle: saline): 115 % of control
T/C (endpoint: mean survival time, dose: 24.0 mg/kg/injection, schedule: Q01DX009 (ip), vehicle: saline with Tween-80): 91 % of control
T/C (endpoint: mean survival time, dose: 24.0 mg/kg/injection, schedule: Q01DX009 (ip), vehicle: saline): 111 % of control
T/C (endpoint: median survival time, dose: 1.56 mg/kg/injection, schedule: Q01DX009 (ip), vehicle: saline with Tween-80): 96 % of control
T/C (endpoint: median survival time, dose: 3.12 mg/kg/injection, schedule: Q01DX009 (ip), vehicle: saline with Tween-80): 101 % of control and 107 % of control
T/C (endpoint: median survival time, dose: 6.25 mg/kg/injection, schedule: Q01DX009 (ip), vehicle: saline with Tween-80): 104 % of control and 107 % of control
T/C (endpoint: median survival time, dose: 12.5 mg/kg/injection, schedule: Q01DX009 (ip), vehicle: saline with Tween-80): 117 % of control and 119 % of control
T/C (endpoint: median survival time, dose: 50.0 mg/kg/injection, schedule: Q01DX009 (ip), vehicle: saline with Tween-80): 86 % of control

O=c1nc(N2CCCCCCC2)ccn1C1OC(CO)C(O)C1O (stereo not drawn)
T/C (endpoint: median survival time, dose: 12.5 mg/kg/injection, schedule: Q01DX005 (ip), vehicle: water): 98 % of control
T/C (endpoint: median survival time, dose: 25.0 mg/kg/injection, schedule: Q01DX005 (ip), vehicle: water): 98 % of control
T/C (endpoint: median survival time, dose: 50.0 mg/kg/injection, schedule: Q01DX005 (ip), vehicle: water): 118 % of control
T/C (endpoint: median survival time, dose: 100.0 mg/kg/injection, schedule: Q01DX005 (ip), vehicle: water): 112 % of control
T/C (endpoint: median survival time, dose: 200.0 mg/kg/injection, schedule: Q01DX005 (ip), vehicle: water): 104 % of control

Cc1ccc([NH-])c([NH-])c1.[Cl][Pt+2][Cl]
T/C (endpoint: mean survival time, dose: 2.5 mg/kg/injection, schedule: Q01DX009 (ip), vehicle: saline with Tween-80): 151 % of control
T/C (endpoint: mean survival time, dose: 5.0 mg/kg/injection, schedule: Q01DX009 (ip), vehicle: saline with Tween-80): 180 % of control
T/C (endpoint: mean survival time, dose: 20.0 mg/kg/injection, schedule: Q01DX009 (ip), vehicle: saline with Tween-80): 94 % of control

O=C(SCc1ccccc1)c1cccnc1
T/C (endpoint: mean survival time, dose: 6.25 mg/kg/injection, schedule: Q01DX009 (ip), vehicle: saline): 98 % of control
T/C [1]: 98 % of control
T/C (endpoint: mean survival time, dose: 25.0 mg/kg/injection, schedule: Q01DX009 (ip), vehicle: saline with Tween-80): 94 % of control
T/C [2]: 98 % of control
T/C (endpoint: mean survival time, dose: 50.0 mg/kg/injection, schedule: Q01DX009 (ip), vehicle: saline with Tween-80): 96 % of control
T/C (endpoint: mean survival time, dose: 100.0 mg/kg/injection, schedule: Q01DX009 (ip), vehicle: saline with Tween-80): 92 % of control

C=CCc1ccccc1OC
T/C [3]: 95 % of control
T/C [4]: 104 % of control
T/C (endpoint: mean survival time, dose: 400.0 mg/kg/injection, schedule: Q04DX003 (ip), vehicle: saline): 95 % of control

CN(C)C1CC2C=CC1C1C=CC21 (stereo not drawn)
T/C (endpoint: mean survival time, dose: 6.25 mg/kg/injection, schedule: Q01DX009 (ip), vehicle: water): 100 % of control
T/C (endpoint: mean survival time, dose: 12.5 mg/kg/injection, schedule: Q01DX009 (ip), vehicle: water): 97 % of control
T/C (endpoint: mean survival time, dose: 25.0 mg/kg/injection, schedule: Q01DX009 (ip), vehicle: water): 101 % of control
T/C (endpoint: mean survival time, dose: 50.0 mg/kg/injection, schedule: Q01DX009 (ip), vehicle: water): 103 % of control

Cc1ccoc1
T/C (endpoint: median survival time, dose: 8.3 mg/kg/injection, schedule: Q03HX015 (ip), vehicle: saline with Tween-80): 101 % of control
T/C (endpoint: median survival time, dose: 16.6 mg/kg/injection, schedule: Q03HX015 (ip), vehicle: saline with Tween-80): 103 % of control
T/C (endpoint: median survival time, dose: 33.3 mg/kg/injection, schedule: Q03HX015 (ip), vehicle: saline with Tween-80): 117 % of control
T/C (endpoint: median survival time, dose: 66.6 mg/kg/injection, schedule: Q03HX015 (ip), vehicle: saline with Tween-80): 124 % of control

CCOc1ccccc1NC(=O)NC1C(OC(C)=O)OC(COC(C)=O)C(OC(C)=O)C1OC(C)=O (stereo not drawn)
T/C (endpoint: mean survival time, dose: 12.5 mg/kg/injection, schedule: Q01DX009 (ip), vehicle: other): 94 % of control
T/C (endpoint: mean survival time, dose: 25.0 mg/kg/injection, schedule: Q01DX009 (ip), vehicle: other): 100 % of control
T/C (endpoint: mean survival time, dose: 50.0 mg/kg/injection, schedule: Q01DX009 (ip), vehicle: other): 94 % of control
T/C (endpoint: mean survival time, dose: 100.0 mg/kg/injection, schedule: Q01DX009 (ip), vehicle: other): 96 % of control
T/C (endpoint: mean survival time, dose: 200.0 mg/kg/injection, schedule: Q01DX009 (ip), vehicle: other): 90 % of control

CC(C)N1CCC1C(=O)O (stereo not drawn)
T/C (endpoint: mean survival time, dose: 100.0 mg/kg/injection, schedule: Q01DX009 (ip), vehicle: saline sonified): 97 % of control
T/C (endpoint: mean survival time, dose: 200.0 mg/kg/injection, schedule: Q01DX009 (ip), vehicle: saline sonified): 105 % of control
T/C (endpoint: mean survival time, dose: 400.0 mg/kg/injection, schedule: Q01DX009 (ip), vehicle: saline sonified): 97 % of control

Nc1ccn(CCC(COCc2ccccc2)COCc2ccccc2)c(=O)n1
T/C (endpoint: mean survival time, dose: 100.0 mg/kg/injection, schedule: Q04DX003 (ip), vehicle: Klucel (hydroxypropylcellulose) (HPC)): 100 % of control
T/C (endpoint: mean survival time, dose: 200.0 mg/kg/injection, schedule: Q04DX003 (ip), vehicle: Klucel (hydroxypropylcellulose) (HPC)): 96 % of control
T/C (endpoint: mean survival time, dose: 400.0 mg/kg/injection, schedule: Q04DX003 (ip), vehicle: Klucel (hydroxypropylcellulose) (HPC)): 96 % of control

NC(CSC1(c2cccc3ccccc23)c2ccccc2-c2ccccc21)C(=O)O (stereo not drawn)
T/C [2]: 94 % of control
T/C [5]: 96 % of control
T/C (endpoint: mean survival time, dose: 100.0 mg/kg/injection, schedule: Q01DX009 (ip), vehicle: saline): 96 % of control
T/C (endpoint: mean survival time, dose: 200.0 mg/kg/injection, schedule: Q01DX009 (ip), vehicle: saline): 94 % of control
T/C (endpoint: mean survival time, dose: 400.0 mg/kg/injection, schedule: Q01DX009 (ip), vehicle: saline): 94 % of control

C[As](C)[Se]C1OC(CO)C(O)C(O)C1O (stereo not drawn)
T/C [1]: 103 % of control
T/C (endpoint: mean survival time, dose: 12.5 mg/kg/injection, schedule: Q04DX003 (ip), vehicle: saline): 94 % of control
T/C [2]: 100 % of control
T/C (endpoint: mean survival time, dose: 25.0 mg/kg/injection, schedule: Q04DX003 (ip), vehicle: saline): 97 % of control
T/C [5]: 102 % of control
T/C (endpoint: mean survival time, dose: 50.0 mg/kg/injection, schedule: Q04DX003 (ip), vehicle: saline): 100 % of control

Cc1nc2[nH]c(=S)[nH]c(=O)c2nc1C
T/C (endpoint: mean survival time, dose: 100.0 mg/kg/injection, schedule: Q04DX003 (ip), vehicle: saline with Tween-80): 97 % of control
T/C (endpoint: mean survival time, dose: 200.0 mg/kg/injection, schedule: Q04DX003 (ip), vehicle: saline with Tween-80): 90 % of control
T/C (endpoint: mean survival time, dose: 400.0 mg/kg/injection, schedule: Q04DX003 (ip), vehicle: saline with Tween-80): 90 % of control

O=C(O)/C=C(/CC(=O)O)C(=O)O
T/C [3]: 98 % of control
T/C [4]: 94 % of control

CCOC(=O)/C(C#N)=N/Nc1ccc(Cl)cc1
T/C [6]: 108 % of control
T/C [7]: 100 % of control
T/C [8]: 92 % of control

C=CCOC(=O)Nc1ccc(S(=O)(=O)N(CCC)CCC)cc1
T/C (endpoint: mean survival time, dose: 100.0 mg/kg/injection, schedule: Q01DX001 (ip), vehicle: saline): 103 % of control
T/C (endpoint: mean survival time, dose: 200.0 mg/kg/injection, schedule: Q01DX001 (ip), vehicle: saline): 101 % of control
T/C (endpoint: mean survival time, dose: 400.0 mg/kg/injection, schedule: Q01DX001 (ip), vehicle: saline): 89 % of control

N#CCS(=O)(=O)c1ccccc1
T/C (endpoint: mean survival time, dose: 12.5 mg/kg/injection, schedule: Q01DX001 (ip), vehicle: saline with Tween-80): 95 % of control
T/C (endpoint: mean survival time, dose: 25.0 mg/kg/injection, schedule: Q01DX001 (ip), vehicle: saline with Tween-80): 98 % of control
T/C (endpoint: mean survival time, dose: 50.0 mg/kg/injection, schedule: Q01DX001 (ip), vehicle: saline with Tween-80): 96 % of control and 98 % of control

Cc1nccn1C(C)c1ccccc1 (stereo not drawn)
T/C (endpoint: mean survival time, dose: 10.0 mg/kg/injection, schedule: Q04DX003 (ip), vehicle: saline): 105 % of control
T/C (endpoint: mean survival time, dose: 20.0 mg/kg/injection, schedule: Q04DX003 (ip), vehicle: saline): 94 % of control
T/C (endpoint: mean survival time, dose: 40.0 mg/kg/injection, schedule: Q04DX003 (ip), vehicle: saline): 92 % of control

COc1cc2ccc3c(c2cc1OC)CCc1cn[nH]c1-3
T/C [6]: 103 % of control
T/C [7]: 107 % of control
T/C [8]: 103 % of control

COc1ccc2c(Cc3ccc(O)cc3)cncc2c1O
T/C (endpoint: mean survival time, dose: 75.0 mg/kg/injection, schedule: Q01DX001 (ip), vehicle: saline): 100 % of control
T/C (endpoint: mean survival time, dose: 150.0 mg/kg/injection, schedule: Q01DX001 (ip), vehicle: saline): 106 % of control
T/C (endpoint: mean survival time, dose: 300.0 mg/kg/injection, schedule: Q01DX001 (ip), vehicle: saline): 98 % of control
